The text below walks through data of patent US20040023922A1, “Lipids for modulating immune response” (priority 2000, published 2004).

The subject of one test is mesenteric lymph nodes. In kind it is in vivo, mice.
Another test has as its system Female Balb/c mice. The test can be described thus: Adjuvanticity of lipids: serum anti-KLH IgA, IgG, IgM ELISA (Example 7). In kind it is in vivo. Conditions: for Day 7 Results IgA, score as multiples of the control response / Day 7 Results IgG, score as multiples of the control response / Day 7 Results IgM, score as multiples of the control response: serum day 7 after booster; for Day 7 Results IgA, score as multiples of the control response: 5 μl lipid + 45 μl saline + 50 μl KLH (2 mg/ml), week 0 and week 2; for Day 7 Results IgA, score as multiples of the control response / Day 7 Results IgG, score as multiples of the control response / Day 7 Results IgM, score as multiples of the control response / Day 21 Results IgA, score as multiples of the control response / Day 21 Results IgG, score as multiples of the control response / Day 21 Results IgM, score as multiples of the control response: control KLH + Saline = 1; for Day 21 Results IgA, score as multiples of the control response / Day 21 Results IgG, score as multiples of the control response / Day 21 Results IgM, score as multiples of the control response: serum day 21 after booster; for Ranking Total: sum of the six IgA, IgG, IgM scores of day 7 and day 21, control KLH + Saline = 6. On the procedure:
The objective of this study was to investigate the adjuvanticity of 19 different lipids.
Female Balb/c mice, 6-8 weeks and weighing about 20-22 gms were used and maintained on a normal mouse diet throughout the study.
There were 22 groups of mice marked alphabetically from A-V. Group A (8 mice) was the negative control (KLH+Saline), Group B (8 mice) was the positive control (KLH+IFA). Groups C-V were the experimental groups containing 6 mice each. 100 μl of antigen preparation comprising of 5 μl lipid+45 μl saline+50 μl (2 mg/ml KLH) was administered to 20 groups of 6 mice each, on week 0 followed by a boost on week 2.
On day 7 and day 21 after the booster dose, the mice were tail bled, the serum separated, aliquoted and stored at 4° C.
The specific anti-KLH IgG and IgM antibody content of each individual serum sample was determined in an established ELISA assay and standardised against a positive control antiserum obtained by hyperimmunisation of mice with KLH (100 μg) in Freund's incomplete adjuvant. Plates were coated with KLH at 2 μg/ml and incubated with four twofold dilutions of samples (100 μl) at 37° C. for 2 hours. The initial dilution of serum samples was 1:50 for IgA assay and 1:100 for IgG and IgM assays. […] IgA and IgM were used at 1:1000 and IgG at 1:2000 for 2 hours at 37° C. The results were expressed as antibody units calculated from the standard curve obtained from pooled immune mouse serum given an arbitrary antibody value of 100,000 IgA units/ml and 1×10^6 IgG and IgM units/ml. The standard curve was diluted from 1:100 to 1:3200 for IgA, 1:4000 to 1:256,000 for IgG and 1:1000 to 1:32000 for IgM samples. The value for each sample dilution falling on standard curve was calculated and the mean taken as the value for the sample.
Results are given in the form of histograms (FIGS. 9 to 14), plotting the Ig response (units/ml) against the trial grouping. […] The number signifies multiples of the control response.
Background: In an ELISA, binding on a coated surface is turned into a signal by an enzyme label.

SMILES strings stand for the structures. Where “and” joins values, the source holds several entries; their conditions need not be identical. Identical values can stand only once. Like-named read-outs stand apart in the source and are kept apart here.

On to `CC/C=C\C/C=C\C/C=C\CCCCCCCC(=O)OCC(COC(=O)CCCCCCC/C=C\C/C=C\C/C=C\CC)OC(=O)CCCCCCC/C=C\C/C=C\C/C=C\CC` [Trilinolenin], for which the “Proliferative cellular response of mesenteric lymph nodes to KLH compared to control (FIG. 15)” value in the test on mesenteric lymph nodes (40 μg on SiO2 particles in 0.2 ml PBS per mouse per day intragastrically, days 1-3, KLH + cholera toxin days 7 and 14, killed day 21, control KLH+CT) is listed as “strong proliferative response”.
As for `CCCCCCCC/C=C\CCCCCCCC(=O)OC[C@H](COP(=O)([O-])OCC[N+](C)(C)C)OC(=O)CCCCCCC/C=C\CCCCCCCC` [Phosphatidycholine, dioleoyl, Phosphatidylcholine, dioleoyl], in the test on mesenteric lymph nodes (mouse, in vivo), the “Proliferative cellular response of mesenteric lymph nodes to KLH compared to control (FIG. 15)” value is “strong proliferative response”.
In the case of `CCCCCCCCCCCCCCCCCC(=O)OCC(COP(=O)([O-])OCC[N+](C)(C)C)OC(=O)CCCCCCCCCCCCCCCCC` (racemic) [PCS, DL-α-Phosphatidylcholine, distearoyl], in the test on Female Balb/c mice, the “Day 7 Results IgA, score as multiples of the control response” value (from here on “Day 7 Results IgA, score as multiples”) stood at 22; the “Day 7 Results IgG, score as multiples of the control response” value (“Day 7 Results IgG, score as multiples” below) is listed as 8; the “Day 7 Results IgM, score as multiples of the control response” value (shortened to “Day 7 Results IgM, score as multiples”) is 2; the “Day 21 Results IgA, score as multiples of the control response” value (“Day 21 Results IgA, score as multiples” for short) is listed as 2. In the test on Female Balb/c mice, the “Day 21 Results IgG, score as multiples of the control response” value (“Day 21 Results IgG, score as multiples” for short) is reported as 13; the “Day 21 Results IgM, score as multiples of the control response” value (“Day 21 Results IgM, score as multiples” for short) is given as 2; the “Ranking Total” value was 49.
On to `CCCCCCCCCCCCCCCCCC(=O)OCC(COC(=O)CCCCCCCCCCCCCCC)OC(=O)CCCCCCCCCCCCCCCCC` (racemic) [DSP, 1,2 Distearoyl-3-palmitoyl-rac-glycerol], for which, in the test with Female Balb/c mice, the “Day 7 Results IgA, score as multiples” value turned out to be 15; the “Day 7 Results IgG, score as multiples” value came to 7; the “Day 7 Results IgM, score as multiples” value is 5; the “Day 21 Results IgA, score as multiples” value is listed as 3. In the test on Female Balb/c mice, the “Day 21 Results IgG, score as multiples” value came to 8; the “Day 21 Results IgM, score as multiples” value came to 2; the “Ranking Total” value was 39 and 40.
Take `CCCCCCCCCCCCCCCC(=O)OCC(COP(=O)(O)OCCN)OC(=O)CCCCCCCCCCCCCCC` (racemic) [PEP, DL-α-Phosphatidylethanolamine, dipalmitoyl]: in the test on Female Balb/c mice, the “Day 7 Results IgA, score as multiples” value turned out to be 9; the “Day 7 Results IgG, score as multiples” value is 8; the “Day 7 Results IgM, score as multiples” value turned out to be 2; the “Day 21 Results IgA, score as multiples” value is reported as 2. Moreover, in the test on Female Balb/c mice, the “Day 21 Results IgG, score as multiples” value came out at 17; the “Day 21 Results IgM, score as multiples” value was 1; the “Ranking Total” value is 40 and 39.
For `CCCCCCCCCCCCCCCC(=O)N[C@@H](CO[C@@H]1O[C@H](CO)[C@@H](O)[C@H](O)[C@H]1O)[C@H](O)CCCCCCCCCCCCCCC` [PC, N-Palmitoyl dihydroglucocerebroside], in the test on Female Balb/c mice, the “Day 7 Results IgA, score as multiples” value was found to be 33; the “Day 7 Results IgG, score as multiples” value is listed as 2; the “Day 7 Results IgM, score as multiples” value amounted to 3; the “Day 21 Results IgA, score as multiples” value was found to be 3. In addition, in the test on Female Balb/c mice, the “Day 21 Results IgG, score as multiples” value turned out to be 12; the “Day 21 Results IgM, score as multiples” value was 3; the “Ranking Total” value is 56.
For `CCCCCCCCCCCCCC(=O)OCC(COC(=O)CCCCCCCCCCCCC)OC(=O)CCCCCCCCCCCCC` [TM, Trymyristin], in the test with Female Balb/c mice, the “Day 7 Results IgA, score as multiples” value was determined as 6; the “Day 7 Results IgG, score as multiples” value turned out to be 4; the “Day 7 Results IgM, score as multiples” value was 1; the “Day 21 Results IgA, score as multiples” value was found to be 1. Moreover, in the test on Female Balb/c mice, the “Day 21 Results IgG, score as multiples” value was determined as 3; the “Day 21 Results IgM, score as multiples” value was 1; the “Ranking Total” value is 17 and 16.
